Laboratory results published in US11905268B2, “Anthranilic acid derivatives and their use in the treatment of human cancers” (UNIVERSITY OF CENTRAL FLORIDA RESEARCH FOUNDATION, INC., priority 2018, dated 2024).
≈ marks a conversion by molar mass, not a printed value. Where two headings read alike, the source gives them in different places.

Columns and labels:
[1] = system: DFMO treated Chinese hamster ovary (CHO) cells; assay: DFMO/spermidine rescue assay in CHO cells (Assay 2); type: cell-based; conditions: for IC50 / EC50: Cricetulus griseus; for EC50: Table 2
CHO cells [2] = assay: Ant44 rescue assay in CHO cells (Assay 1); type: cell-based, Chinese hamster; conditions: for EC50 / IC50: Cricetulus griseus; for Active in Ant44 assay?: Table 2, in CHO
CHO cells [3] = assay: Cytotoxicity screen in CHO cells; conditions: for IC50 at 48 h: Chinese hamster, CHO K1 cells
L3.6pl cells [4] = assay: DFMO/Spd rescue assay in L3.6pl cells; type: cell-based, human; conditions: for EC value in DFMO/Spd rescue assay: Table 9, ECx = y: x% effect at y μM
Description: In another example in the DFMO spermidine (Spd) rescue assay an EC38=8 means that the PTI molecule at 8 μM was able to block 38% of the entry of spermidine into DFMO treated L3.6 pl cells after 72 h incubation time at 37° C. Another explanation, is that the PTI was able to disrupt […] of the intracellular trafficking of Spd that leads to cell rescue. […] Since both Ant44 and Spermidine are polyamine-based systems, cells likely use one mode of the polyamine transport (basal or obligate) in each assay.
(§1) The higher EC value denotes the compound is giving a relative % growth of L3.6 pl cells consistent with inhibiting either Ant44 uptake or blocking the uptake of the rescuing dose of spermidine. Alternatively these compounds may disrupting the intracellular trafficking of Ant44 and spermidine so they cannot reach their intended intracellular target.

L3.6pl cells [5] = assay: Ant44 assay in L3.6pl cells; type: cell-based, human; conditions: for EC50: Homo sapiens, L3.6pl; for EC value in Ant44 (3 μM) assay: Table 9, ECx = y: x% effect at y μM
Description: For example, in the ANT44 assay an EC48=9 means that the PTI molecule at 9 μM was able to block 48% of the Ant44 entry into L3.6 pl human Pancreatic ductal adenocarcinoma cells after 72 h incubation time at 37° C. Another explanation, is that the PTI was able to disrupt […] of the intracellular trafficking of Ant44 that leads to toxicity. Recall a polyamine transport inhibitor can work at any one (or more than one) of the different steps involved in the multi-step polyamine import and intracellular trafficking process. Blocking the entering spermidine from reaching its intended intracellular target is another way in which these compounds may function.
as §1

L3.6pl cells [6] = assay: cells; type: cell-based; conditions: for IC50: Homo sapiens, L3.6pl; for L3.6pl MTC: maximum tolerated concentration where cells are >90% viable
Solubility = type: physicochemical; conditions: for solubility: PBS
[7] = Microsomal stability, human; type: in vitro ADME
[8] = Microsomal stability, mouse; type: in vitro ADME
[9] = Microsomal stability, rat; type: in vitro ADME
Plasma stability, human = type: in vitro ADME
Plasma stability, mouse = type: in vitro ADME
Plasma stability, rat = type: in vitro ADME
[10] = CHO, Table 7, read-out: SAR IC50 DFMO assay
[11] = CHO, Table 7, read-out: SAR IC50 Ant44 assay
[12] = read-out: IC50 values (toxicity profile)
[13] = relative growth after 72 h, read-out: L3.6pl IC50
[14] = 72 h, Table 9, read-out: 72 h IC50
[15] = CHO, Table 2, Active in Ant44 assay?, read-out: Ant44 assay EC50 in CHO
[16] = Table 4B, CHO cells, read-out: Ant44 IC50
[17] = summary of Table 6 (human, mouse, rat)

O=C(Nc1ccc(N2CCN(c3ccccn3)CC2)cc1C(=O)O)c1ccco1 [SBI-0814419, 2-(furan-2-carboxamido)-5-(4-(pyridin-2-yl)piperazin-1-yl)benzoic acid]
IC50 [1, 10]: > 40 µM | Active in DFMO assay? ([1]; Table 3, in CHO): No in CHO and in L3.6pl | EC50 (CHO cells [2]; CHO, Table 3, read-out: Ant44 rescue EC50 CHO): > 32 µM | IC50 (CHO cells [2]; [11]): > 40 µM | Ant44 IC50 (CHO cells [2]; Table 5B, CHO cells): trace | IC50 at 48 h (CHO cells [3]): > 40 µM | MTD CHO (CHO cells [3]; hamster): >32 µM | worked in Assay 2 (DFMO) (L3.6pl cells [4]): performed in both assays | Active in DFMO assay? (L3.6pl cells [4]; Table 3, in L3.6pl): No in CHO and in L3.6pl | worked in Assay 1 (Ant44) (L3.6pl cells [5]): performed in both assays | EC50 (L3.6pl cells [5]; Table 3, read-out: Ant44 rescue EC50 L3.6pl): 10 µM | EC50 (L3.6pl cells [5]; Table 5B, Ant44 blockade, read-out: L3.6pl EC50): 10 µM | IC50 (L3.6pl cells [6]; [12]): > 38 µM | IC50 (L3.6pl cells [6]; [13]): > 50 µM | MTD L3.6pl (L3.6pl cells [6]; Table 3): >20 µM | L3.6pl MTD (L3.6pl cells [6]; Table 5B): (>10) uM | L3.6pl MTC (L3.6pl cells [6]): 12 µM

O=C(Nc1ccc(N2CCC(Oc3ccccc3)CC2)cc1C(=O)O)c1cc2ccccc2[nH]1
EC value in DFMO/Spd rescue assay (L3.6pl cells [4]): EC30 = 9 μM | EC value in Ant44 (3 μM) assay (L3.6pl cells [5]): not working as a PTI | IC50 (L3.6pl cells [6]; [14]): 38.3 ± 0.04 µM | MTD (L3.6pl cells [6]; Table 9): 10 µM

COc1ccc(C(=O)Nc2ccc(N3CCN(c4cc(Cl)ccc4C)CC3)cc2C(=O)O)c(OC)c1 [drawing 135]
EC value in DFMO/Spd rescue assay (L3.6pl cells [4]): EC15 = 20 μM | EC value in Ant44 (3 μM) assay (L3.6pl cells [5]): inactive | IC50 (L3.6pl cells [6]; [14]): > 50 µM | MTD (L3.6pl cells [6]; Table 9): >20 µM

COc1ccccc1C(=O)Nc1ccc(N2CCC(Oc3ccccc3)CC2)cc1C(=O)O [SBI-0814420, 2-(2-methoxybenzamido)-5-(4-phenoxypiperidin-1-yl)benzoic acid]
IC50 [1, 10]: 19 µM | IC50 (CHO cells [2]; [11]): 32 µM | IC50 at 48 h (CHO cells [3]): > 40 µM | worked in Assay 2 (DFMO) (L3.6pl cells [4]): performed in both assays | worked in Assay 1 (Ant44) (L3.6pl cells [5]): performed in both assays | IC50 (L3.6pl cells [6]; [12]): > 38 µM | IC50 (L3.6pl cells [6]; [13]): 38.6 ± 0.06 µM | L3.6pl MTC (L3.6pl cells [6]): 10 µM

COc1ccc(C(=O)Nc2ccc(N3CCN(c4cc(Cl)ccc4C)CC3)cc2C(=O)O)cc1 [drawing 134]
EC value in DFMO/Spd rescue assay (L3.6pl cells [4]): EC49 = 8 μM | EC value in Ant44 (3 μM) assay (L3.6pl cells [5]): EC21 = 8 μM | IC50 (L3.6pl cells [6]; [14]): 16.8 ± 0.1 µM | MTD (L3.6pl cells [6]; Table 9): 8 µM

O=C(Nc1ccc(F)cc1C(=O)O)c1ccco1
EC value in DFMO/Spd rescue assay (L3.6pl cells [4]): EC67 = 100 μM | EC value in Ant44 (3 μM) assay (L3.6pl cells [5]): EC36 = 50 μM | IC50 (L3.6pl cells [6]; [14]): > 100 µM | MTD (L3.6pl cells [6]; Table 9): >100 µM

COc1ccccc1C(=O)Nc1ccc(N2CCC(c3ccccc3)CC2)cc1C(=O)O [SBI-0814418, 2-(2-methoxybenzamido)-5-(4-phenylpiperidin-1-yl)benzoic acid]
activity in DFMO assay ([1]; CHO cells): modest activity | EC50 ([1]; CHO): 21 µM | IC50 ([1]; CHO, Table 4B, read-out: DFMO/CHO IC50): 21 µM | IC50 [1, 10]: 21 µM | activity in Ant44 assay (CHO cells [2]; CHO cells): modest activity | EC50 (CHO cells [2]; [15]): 19 µM | IC50 (CHO cells [2]; [11]): 18 µM | IC50 (CHO cells [2]; [16]): 19 µM | Active in Ant44 assay? (CHO cells [2]): Yes | general toxicity (CHO cells [3]; CHO cells): without general toxicity | IC50 at 48 h (CHO cells [3]): > 40 µM | CHO MTD (CHO cells [3]; hamster): >32 µM | activity in DFMO assay run in L3.6 pl (L3.6pl cells [4]): micromolar activity | EC50 (L3.6pl cells [4]; Homo sapiens, Table 2, DFMO rescue in L3.6pl): 5 µM | Active in Ant44 assay? (L3.6pl cells [5]; Table 2, in L3.6pl): no | L3.6pl MTD (L3.6pl cells [6]; Table 2): 5 µM | L3.6pl MTD (L3.6pl cells [6]; Table 4B): (5-10) μM | L3.6pl MTD cell: percentage at 10 μM (L3.6pl cells [6]; at 10 μM): 80%

O=C(Nc1ccc(N2CCC(Oc3ccccc3)CC2)cc1C(=O)O)c1cc2ccccc2o1
EC value in DFMO/Spd rescue assay (L3.6pl cells [4]): EC30 =10 μM | EC value in Ant44 (3 μM) assay (L3.6pl cells [5]): EC7 = 10 μM | IC50 (L3.6pl cells [6]; [14]): 44.4 ± 0.04 µM | MTD (L3.6pl cells [6]; Table 9): 10 µM

COc1ccc(C(=O)Nc2ccc(N3CCN(c4ccccc4OC)CC3)cc2C(=O)O)cc1 [SBI-0800678]
EC50 ([1]; CHO): ~25 µM | IC50 ([1]; Table 1 HTS top hits, CHO cells, read-out: DFMO Assay IC50): 15 to 25 µM | EC50 (CHO cells [2]; [15]): ~20 µM | IC50 (CHO cells [2]; [11]): 9 µM | EC50 (CHO cells [2]; Table 1 HTS top hits, CHO cells, read-out: Ant44 EC50): 20 µM | IC50 (CHO cells [2]; [16]): 9 µM | Active in Ant44 assay? (CHO cells [2]): Yes | IC50 at 48 h (CHO cells [3]): > 40 µM | CHO MTD (CHO cells [3]; hamster): >32 µM | Tox (Ant44) (CHO cells [3]; toxic above the stated concentration, CHO cells, listed with Ant44 assay): SBI- 0800678.0001 (20 EC50) Tox >20 μM | tox (DFMO Assay) (CHO cells [3]; toxic above the stated concentration, CHO cells, listed with DFMO assay): > 15 µM | worked in Assay 1 (Ant44) (L3.6pl cells [5]): worked | IC50 (L3.6pl cells [6]; [13]): 13.3 ± 0.04 µM | L3.6pl MTC (L3.6pl cells [6]): 6 µM | solubility in PBS (Solubility): poorly soluble | solubility (Solubility; aqueous buffer, pH 5.0): 0.3 µg/mL (≈ 0.65 µM) | solubility (Solubility; pH 6.2, aqueous buffer): 0.1 µg/mL (≈ 0.217 µM) | solubility (Solubility; pH 7.4, aqueous buffer): > 0.1 µg/mL | Microsomal Stability % remaining at 1 hour ([7]; Human): 52.0% | microsomal stability [7, 17]: good | Microsomal Stability % remaining at 1 hour [8]: 60.4% | Microsomal Stability % remaining at 1 hour [9]: 58.0% | Plasma Stability % remaining at 3 hours (Plasma stability, human; Human): 88.0% | plasma stability (Plasma stability, human; [17]): good | Plasma Stability % remaining at 3 hours (Plasma stability, mouse): 83.1% | Plasma Stability % remaining at 3 hours (Plasma stability, rat): 55.3%

COc1ccccc1C(=O)Nc1ccc(N2CCN(c3cc(Cl)ccc3C)CC2)cc1C(=O)O [drawing 136]
EC value in DFMO/Spd rescue assay (L3.6pl cells [4]): EC29 = 5 μM | EC value in Ant44 (3 μM) assay (L3.6pl cells [5]): not working as a PTI | IC50 (L3.6pl cells [6]; [14]): 29.1 ± 0.03 µM | MTD (L3.6pl cells [6]; Table 9): >5 µM

Cl.O=C(Nc1ccc(N2CCNCC2)cc1C(=O)O)c1ccco1
EC value in DFMO/Spd rescue assay (L3.6pl cells [4]): EC10 = 40 μM | EC value in Ant44 (3 μM) assay (L3.6pl cells [5]): EC22 = 40 μM | IC50 (L3.6pl cells [6]; [14]): > 50 µM | MTD (L3.6pl cells [6]; Table 9): 40 µM

O=C(Nc1ccc(N2CCC(Oc3ccccc3)CC2)cc1C(=O)O)c1cccnc1
EC value in DFMO/Spd rescue assay (L3.6pl cells [4]): EC25 = 8 μM | EC value in Ant44 (3 μM) assay (L3.6pl cells [5]): Not working | IC50 (L3.6pl cells [6]; [14]): > 50 µM | MTD (L3.6pl cells [6]; Table 9): 10 µM

O=C(Nc1ccc(N2CCC(Oc3ccccc3)CC2)cc1C(=O)O)c1ccc(-c2ccc(Cl)cc2)o1
EC value in DFMO/Spd rescue assay (L3.6pl cells [4]): EC6 = 1 μM | EC value in Ant44 (3 μM) assay (L3.6pl cells [5]): Not working | IC50 (L3.6pl cells [6]; [14]): > 1 µM | MTD (L3.6pl cells [6]; Table 9): 1 µM
